{"source": "patent US20170150715A1", "about": "“METHODS OF ELIMINATING SPORES” (Lifeclean International AB, priority 2013, published 2017)", "key": {"[1]": {"system": "spores of C Difficile, Ribotype 25", "assay": "Elimination of spores of C Difficile on glass surfaces, types and combinations of surface active agents (Example 6)", "type": "cell-based, Clostridium difficile", "experimental": "Example 6 was designed in order to evaluate different types and combinations of surface active agents in combination with chlorine oxide for elimination of spores of C Difficile on surfaces. The following test solutions were used:\nThe solutions were prepared in accordance with Examples 2, 2A and 3. RD1 and RD2 signify the anionic surfactants of Example 3 branded DOWFAX 3B2 and DOWFAX 8390, respectively. RD3 and RD4 signify the cationic surfactants of Example 2A branded AO-8 Macat and AO-12 Macat.\nA spore suspension was generated and counted in accordance with Example 4:\nRibotype 25; 8.0×10^9 spores/mL (8.0×10^8 spores on the glass surface) approximately 80% spores in the suspension.\n(§1) The glass surfaces were prepared by transferring 0.1 ml of the spore solution to microscopy slides. After the suspension has dried, 0.2 ml of the test solutions were added to the slides for application times between 1 and 10 minutes. Subsequently, the glass surfaces were each placed in a 500 ml glass flask with 250 ml 0.85% NaCl solution and rotated at 200 rpm for 20 minutes."}, "[2]": {"system": "C difficile spores PCR Ribotype 023", "assay": "Elimination of spores of Clostridium difficile on surfaces (Example 4; glass, brass, copper)", "type": "cell-based", "details": "10 minutes exposure; for Culture 6 PY-broth undiluted / Culture 7 PY-broth 10^−2 / Culture 8 PY-broth 10^−4 / Culture 9 PY-broth 10^−6: cotton tip smear of surface; for total amount of CFUs in the flasks (within brackets): surviving spores displaced from the surface; for amount of CFU in the undiluted PY-broth (within brackets): surviving spores remaining attached to the surface", "text": "C difficile spores PCR Ribotype 023 (ECDC/Cardiff nomenclature) were transferred from a frozen sample to plates with Fastidious Anaerobe Agar (FAAAP), cultured under anaerobe conditions for 2 days. The cultures were transferred to ambient conditions and colonies of C difficile were admitted to sporulate. The spores were harvested and dissolved in sterile water (reverse osmosis (RO)), subjected to alcohol shock (70%), washed, centrifugated and collected as a suspension of spores.\nIn the preparation 0.1 ml of the spore suspension was transferred to microscopy slides, sterile plates of brass or copper. When the spore suspensions have dried, 0.2 ml of the following solutions were added:\nAfter 10 minutes exposure to the solutions, the Glasses and the plates were each transferred to a 500 ml Glass flask to dilute and interrupt disinfection. The flasks were rotated at 200 rpm for 20 minutes.\nFrom each of the rotated flasks 0.1 ml was transferred to agar plates (Culture 1). The samples were diluted in two steps 1/10 in tubes. From each tube, 0.1 ml was transferred to agar plates (Cultures 2 and 3).\nThe solutions in the flasks were filtered and rinsed with 3×100 ml buffered peptone water (PENAL). The filtrations were performed in two steps. At first, 1 ml was filtered, then remaining volume of solution in the flasks (approx. 249 ml). The filters were cultured on agar plates (Cultures 4 and 5).\nAt two times, 40 ml samples were taken from the filtrates. These were centrifugated and the supernatant was discarded, the pellet re-suspended in 0.1 ml 0.85% NaCl solution. The entire volume was transferred to agar plates.\nIn order to assess if viable spore remain on the surfaces of Glasses and the, they were smeared with moist cotton tip (all smeared in accordance with a “double-S” shape). The tip was cultured in 2 ml pre-reduced PY-broth which was diluted 1/10 in several repeated steps and cultured on agar plates (0.2 ml/plate), (Cultures 6 to 9)\nAll culture plates were cultured under anaerobe conditions at 36° C. for 2 days."}, "[3]": {"system": "spore suspension Ribotype 25", "assay": "Elimination of spores on glass surfaces, different contact times (Example 7)", "type": "cell-based, Clostridium difficile", "details": "glass surface, contact time 10 min", "experimental": "Example 7 outlines a test with different contact for chlorine dioxide solution according to the invention. A spore suspension was generated and counted in accordance with Example 4:\nRibotype 25; 9.6×10^8 spores/mL (9.6×10^7 spores on the glass surface) approximately 80% spores in the suspension.\nas §1\nThe test solution comprising chlorine dioxide was prepared in accordance with Example 2B, comprising 1600 ppm chlorine dioxide together with 0.2% (v/v) cationic surfactant comprising equal amounts of octyl dimethylamine oxide and lauryl dimethylamine oxide). After rotation, the contents of the flasks were treated and cultured with procedures and agar plates in accordance with Example 4."}, "[4]": {"system": "spore suspension Ribotype 25", "assay": "Elimination of spores on glass surfaces, different concentrations of surfactants (Example 8)", "type": "cell-based, Clostridium difficile", "details": "glass surface, application time 2 minutes", "experimental": "Example 9 outlines a test with chlorine dioxide solutions of 800 and 1600 ppm having different concentration of surfactants made in accordance with Example 2A. A spore suspension was generated and counted in accordance with Example 4:\nRibotype 25; 8.0×10^8 spores/mL (8.0×10^7 spores on the glass surface) approximately 80% spores in the suspension.\nThe glass surfaces were prepared by transferring 0.1 ml of the spore solution to microscopy slides. After the suspension has dried, 0.2 ml of the test solutions were added to the slides for an application time of 2 minutes. Subsequently, the glass surfaces were each placed in a 500 ml glass flask with 250 ml 0.85% NaCl solution and rotated at 200 rpm for 20 minutes.\nAfter rotation, the contents of the flasks were treated and cultured with procedures and agar plates in accordance with Example 4."}, "[5]": {"details": "8.0×10^8 spores on the glass surface"}, "[6]": {"details": "spores survived not detached from the surface"}, "[7]": {"details": "surviving spores detached from the surface"}}, "note": "Marks after values point to notes of the source that are not given here."}
{"smiles": "CCO", "note": "[70% Ethanol, Ethanol]", "values": [{"measurement": "0.1 mL Diluted 10^−1", "setting": "[1]; [5]", "value": "overgrown"}, {"measurement": "0.1 mL Diluted 10^−2", "setting": "[1]; [5]", "value": 240, "unit": "CFUs"}, {"measurement": "0.1 mL From bottle", "setting": "[1]; [5]", "value": "overgrown"}, {"measurement": "Filtration 1 mL", "setting": "[1]; [5]", "value": "overgrown"}, {"measurement": "PY-broth Diluted 10^−2", "setting": "[1]; [5]", "value": "overgrown"}, {"measurement": "PY-broth Diluted 10^−4", "setting": "[1]; [5]", "value": 86, "unit": "CFUs"}, {"measurement": "PY-broth Undiluted", "setting": "[1]; [5]", "value": "overgrown"}, {"measurement": "number of CFUs in the undiluted PY-broth (brackets)", "setting": "[1]; [6]", "value": "(8.6 × 10^6) CFUs"}, {"measurement": "number of CFUs in the flask (brackets)", "setting": "[1]; [7]", "value": "(6.0 × 10^7) CFUs"}, {"measurement": "Culture 1 0.1 mL From bottle", "setting": "[2]; Brass", "value": "overgrown"}, {"measurement": "Culture 2 Dilution 10^−1", "setting": "[2]; Brass", "value": 55, "unit": "CFU"}, {"measurement": "Culture 3 Dilution 10^−2", "setting": "[2]; Brass", "value": 5, "unit": "CFU"}, {"measurement": "Culture 4 Filtration 1 mL", "setting": "[2]; Brass", "value": "overgrown"}, {"measurement": "Culture 5 Filtration 249 mL", "setting": "[2]; Brass", "value": "overgrown"}, {"measurement": "Culture 6 PY-broth undiluted", "setting": "[2]; Brass", "value": "overgrown"}, {"measurement": "Culture 7 PY-broth 10^−2", "setting": "[2]; Brass", "value": "overgrown"}, {"measurement": "Culture 8 PY-broth 10^−4", "setting": "[2]; Brass", "value": 74, "unit": "CFU"}, {"measurement": "Culture 9 PY-broth 10^−6", "setting": "[2]; Brass", "value": 0, "unit": "CFU"}, {"measurement": "total amount of CFUs in the flasks (within brackets)", "setting": "[2]; Brass", "value": "(1.4 × 10^6) CFU"}, {"measurement": "amount of CFU in the undiluted PY-broth (within brackets)", "setting": "[2]; Brass", "value": "(7.4 × 10^6) CFU"}, {"measurement": "Culture 1 0.1 mL From bottle", "setting": "[2]; Copper", "value": 429, "unit": "CFU"}, {"measurement": "Culture 2 Dilution 10^−1", "setting": "[2]; Copper", "value": 40, "unit": "CFU"}, {"measurement": "Culture 3 Dilution 10^−2", "setting": "[2]; Copper", "value": 1, "unit": "CFU"}, {"measurement": "Culture 4 Filtration 1 mL", "setting": "[2]; Copper", "value": "overgrown"}, {"measurement": "Culture 5 Filtration 249 mL", "setting": "[2]; Copper", "value": "overgrown"}, {"measurement": "Culture 6 PY-broth undiluted", "setting": "[2]; Copper", "value": "overgrown"}, {"measurement": "Culture 7 PY-broth 10^−2", "setting": "[2]; Copper", "value": "overgrown"}, {"measurement": "Culture 8 PY-broth 10^−4", "setting": "[2]; Copper", "value": 79, "unit": "CFU"}, {"measurement": "Culture 9 PY-broth 10^−6", "setting": "[2]; Copper", "value": 0, "unit": "CFU"}, {"measurement": "total amount of CFUs in the flasks (within brackets)", "setting": "[2]; Copper", "value": "(1.0 × 10^6) CFU"}, {"measurement": "amount of CFU in the undiluted PY-broth (within brackets)", "setting": "[2]; Copper", "value": "(7.9 × 10^6) CFU"}, {"measurement": "Culture 1 0.1 mL From bottle", "setting": "[2]; Glass", "value": "overgrown"}, {"measurement": "Culture 2 Dilution 10^−1", "setting": "[2]; Glass", "value": 517, "unit": "CFU"}, {"measurement": "Culture 3 Dilution 10^−2", "setting": "[2]; Glass", "value": 46, "unit": "CFU"}, {"measurement": "Culture 4 Filtration 1 mL", "setting": "[2]; Glass", "value": "overgrown"}, {"measurement": "Culture 5 Filtration 249 mL", "setting": "[2]; Glass", "value": "overgrown"}, {"measurement": "Culture 6 PY-broth undiluted", "setting": "[2]; Glass", "value": "overgrown"}, {"measurement": "Culture 7 PY-broth 10^−2", "setting": "[2]; Glass", "value": "overgrown"}, {"measurement": "Culture 8 PY-broth 10^−4", "setting": "[2]; Glass", "value": 39, "unit": "CFU"}, {"measurement": "Culture 9 PY-broth 10^−6", "setting": "[2]; Glass", "value": 1, "unit": "CFU"}, {"measurement": "total amount of CFUs in the flasks (within brackets)", "setting": "[2]; Glass", "value": "(1.2 × 10^7) CFU"}, {"measurement": "amount of CFU in the undiluted PY-broth (within brackets)", "setting": "[2]; Glass", "value": "(3.9 × 10^6) CFU"}, {"measurement": "Number cfu Filtration 249 mL", "setting": "[3]", "value": "overgrown"}, {"measurement": "Number cfu × 10 PY-broth Undiluted", "setting": "[3]", "value": "overgrown"}, {"measurement": "Number cfu × 10^3 PY-broth Diluted 10^−2", "setting": "[3]", "value": "overgrown"}, {"measurement": "Number cfu × 10^5 PY-broth Diluted 10^−4", "setting": "[3]", "value": 67, "unit": "cfu"}, {"measurement": "Number cfu × 10 × 250 0.1 mL From bottle", "setting": "[3]", "value": "overgrown"}, {"measurement": "Number cfu × 100 × 250 0.1 mL Diluted 10^−1", "setting": "[3]", "value": "overgrown"}, {"measurement": "Number cfu × 250 Filtration 1 mL", "setting": "[3]", "value": "overgrown"}, {"measurement": "Number cfu × 1000 × 250 0.1 mL Diluted 10^−2", "setting": "[3]", "value": 103, "unit": "cfu"}, {"measurement": "number of CFUs in the undiluted PY-broth (brackets)", "setting": "[3]; [6]", "value": "(6.7 × 10^6) CFUs"}, {"measurement": "number of CFUs in the flask (brackets)", "setting": "[3]; [7]", "value": "(2.6 × 10^7) CFUs"}, {"measurement": "Number cfu × 100 × 250 0.1 mL Diluted 10^−2", "setting": "[4]; head lines shifted, by Table 4 layout: 0.1 mL Diluted 10^−1", "value": "overgrown"}, {"measurement": "Number cfu × 1000 × 250 PY-broth Undiluted", "setting": "[4]; head lines shifted, by Table 4 layout: 0.1 mL Diluted 10^−2", "value": 81, "unit": "cfu"}, {"measurement": "Number cfu × 10 × 250 0.1 mL Diluted 10^−1", "setting": "[4]; head lines shifted, by Table 4 layout: 0.1 mL From bottle", "value": "overgrown"}, {"measurement": "Number cfu × 250 0.1 mL From bottle", "setting": "[4]; head lines shifted, by Table 4 layout: Filtration 1 mL", "value": "overgrown"}, {"measurement": "Number cfu Filtration 1 mL", "setting": "[4]; head lines shifted, by Table 4 layout: Filtration 249 mL", "value": "overgrown"}, {"measurement": "Number cfu × 10^3 PY-broth Diluted 10^−4", "setting": "[4]; head lines shifted, by Table 4 layout: PY-broth Diluted 10^−2", "value": "overgrown"}, {"measurement": "Number cfu × 10^5 Filtration 249 mL", "setting": "[4]; head lines shifted, by Table 4 layout: PY-broth Diluted 10^−4", "value": 28, "unit": "cfu"}, {"measurement": "Number cfu × 10 PY-broth Diluted 10^−2", "setting": "[4]; head lines shifted, by Table 4 layout: PY-broth Undiluted", "value": "overgrown"}, {"measurement": "number of CFUs in the undiluted PY-broth (brackets)", "setting": "[4]; [6]", "value": "(2.8 × 10^6) CFUs"}, {"measurement": "number of CFUs in the flask (brackets)", "setting": "[4]; [7]", "value": "(2.0 × 10^7) CFUs"}]}
